Results from patent publication US4259342A, “Antianginal treatment with azepine derivatives” (priority 1978, dated 1981).
Structures can show the parent of a compound that is named as a salt. Where two headings read alike, the source gives them in different places.

How the values were obtained:
vagotomized rats = assay: heart rate lowering effect on vagotomized rats; format: in vivo; settings: Rattus norvegicus, iv, 0.5 h, read-out: D50 (dose which lowers the heart rate by 50 beats/min.)
Protocol: were tested as follows with regard to their heart rate lowering effect on vagotomized rats:
The animals were vagotomized and received a tracheal cannula; a polyethylene catheter was placed into the jugular vein. For measuring the ECG, needle electrodes were clamped to the extremities. During the test the body temperature of the animals was kept constant (34° C.).
After balancing out a constant starting heart rate (determined by counting the heart beats from the ECG), the test compound was intravenously administered to the animal. 30 minutes later the type was measured again.
Each compound was tested at 3 dosages administered to each of 6 animals; only one compound and dose per animal.
The average of the 6 single values per dose (Δ heart rate in beats/min.) was determined, and the dose activity curves were prepared, from which the D50 (dose which lowers the heart rate by 50 beats/min.) was determined:

[1] = system: patients with angina pectoris; assay: exercise test on bicycle ergometer in patients with angina pectoris, crossover single-blind against placebo (antianginal activity); format: in vivo
Protocol: The antianginal activity of
was determined in patients with angina pectoris as follows:
11 Patients with clinical and electrocardiographic symptoms of coronary insufficiency were selected for a crossover comparative single-blind study of compound A against placebo. Only those patients were allocated to one of the 2 treatments who complained of precordial pain at the same workload on 3 different days during the run-in period. In order to avoid carry-over effects the sequence of treatment was A placebo in every patient. 30 minutes after the injection of the test substance the patients were exercised on a bicycle ergometer. They started with a workload of 25 watts, which was increased every 3 minutes by 25 watts until the onset of pain. The heart rate and the blood pressure were registered every minute. The heart rate was determined by means of an ECG; the measurement of the blood pressure was carried out according to Riva-Rocci always by the same medical assistant.
The following parameters were evaluated:
1. Time until the onset of pain
2. Heart rate at the onset of pain
3. Blood pressure at the onset of pain
4. The workload performed, resulting from the sum of the products multiplied by the watts per minute (W×min).
5. The maximum workload, which results from the watts of the last complete exercise period (lasting 3 minutes) and the watts of the next unfinished period (watts)
6. The pressure frequency product as index for the oxygen consumption, which was calculated from the product of the heart rate and of the systolic blood pressure.
Since some patients reported pain without depression of the ST segment, ST segment was not evaluated

[2] = acute toxicity in mice after administration per os (Litchfield and Wilcoxon); settings: mouse, in vivo, po, mice of both sexes, deaths within 14 days
Protocol: The acute toxicity was determined in mice of both sexes with an average body weight of 20 gm after administration per os. From the percentage of the animals which died within 14 days after the administration of various doses, the LD50 was determined according to the method of Litchfield and Wilcoxon (J. Pharmacol. exp. Ther. 96, 99 (1949): […]

[3] = i.v., vagotomized rats, 30 minutes after administration, 3 dosages, 6 animals each
[4] = at the moment of the highest comparable workload, 30 minutes after injection
[5] = at the onset of pain, 30 minutes after injection

C=CCN1CCc2nc(N)oc2CC1 [B, 2-Amino-6-allyl-4,5,7,8-tetrahydro-6H-oxoazolo[5,4-d]azepine dihydrochloride]
ED (50 beats/min) (vagotomized rats; [3]): 0.1 mg/kg

CCCN1CCc2nc(N)sc2CC1.Cl.Cl [Compound D, 2-Amino-6-n-propyl-4,5,7,8-tetrahydro-6H-thiazolo[5,4-d]azepine dihydrochloride]
ED (50 beats/min) (vagotomized rats; [3]): 0.012 mg/kg

CCN1CCc2nc(N)oc2CC1.Cl.Cl [Compound A, 2-Amino-6-ethyl-4,5,7,8-tetrahydro-6H-oxazolo[5,4-d]azepine dihydrochloride]
ED (50 beats/min) (vagotomized rats): 0.5 mg/kg | increase of duration of exercise performance (time patients could be exercised longer) vs control ([1]; 30 minutes after injection, control 6 minutes on the average): 2 min | reduction of heart rate at the highest comparable workload ([1]; at the highest comparable workload, 30 minutes after injection): 12 beats/min | diastolic blood pressure at the highest comparable workload [1, 4]: unchanged | reduction of systolic blood pressure at the highest comparable workload [1, 4]: 19 mm Hg | diastolic blood pressure at the onset of pain [1, 5]: unchanged | increase of heart rate at the onset of pain [1, 5]: 2 beats/min | reduction of systolic blood pressure at the onset of pain [1, 5]: 8 mm Hg | difference of heart rate between placebo and compound A during the last complete minute before stopping ([1]; last complete minute before stopping, direction not given): 3 beats/min | reduction of systolic blood pressure over placebo during the last minute before stopping ([1]; last minute before stopping): 9 mm Hg | product of pressure frequency during the last minute before stopping ([1]; last minute before stopping, placebo 313): 295 | product of pressure frequency at the highest comparable strain ([1]; moment of the highest comparable strain, placebo 310): 258 | maximum work (maximum workload) ([1]; placebo 76 watts): 87 watts | average work performed until workload was stopped ([1]; placebo 495 W×min): 627 W×min | O2 consumption of the heart (concluded from rate/pressure product) ([1]; summary in words): diminishes O2 consumption | effect on duration of exercise and exercise capacity ([1]; summary in words): increases the duration of exercise and exercise capacity | LD50 at 336 h [2]: 2210 mg/kg

Nc1nc2c(s1)CCN(Cc1ccc(Cl)cc1)CC2 [G, 2-Amino-6-(4-chloro-benzyl)-4,5,7,8-tetrahydro-6H-thiazolo[5,4-d]azepine dihydrocloride]
ED (50 beats/min) (vagotomized rats; [3]): 1.4 mg/kg | LD50 at 336 h [2]: 905 mg/kg

C=CCN1CCc2nc(N)sc2CC1.Cl.Cl [E, 2-Amino-6-allyl-4,5,7,8-tetrahydro-6H-thiazolo[5,4-d]azepine dihydrochloride]
ED (50 beats/min) (vagotomized rats; [3]): 0.042 mg/kg | LD50 at 336 h [2]: 455 mg/kg

CCN1CCc2nc(N)sc2CC1.Cl.Cl [C, 2-Amino-6-ethyl-4,5,7,8-tetrahydro-6H-thiazolo[5,4-d]azepine dihydrochloride]
ED (50 beats/min) (vagotomized rats; [3]): 0.032 mg/kg | LD50 at 336 h [2]: > 1500 mg/kg

Cl.Cl.Nc1nc2c(s1)CCN(CCO)CC2 [F, 2-Amino-6-(2-hydroxy-ethyl)-4,5,7,8-tetrahydro-6H-thiazolo[5,4-d]azepine dihydrochloride]
ED (50 beats/min) (vagotomized rats; [3]): 0.037 mg/kg | LD50 at 336 h [2]: ~1000 mg/kg
